# Test results: patent US12077503B2, “Substituted cyclic amides and their use as herbicides” (FMC CORPORATION, priority 2015, dated 2024)
# What was measured:
# Format in all cases: in vivo
# [1] = system: barnyardgrass (Echinochloa crus-galli); assay: Test B flooded paddy test; details: Echinochloa crus-galli, 360 h, Flood, 250 g ai/ha; visually evaluated after 13 to 15 d; read-out: Plant response rating, Barnyardgrass (0 to 100 scale where 0 is no effect and 100 is complete control)
# Procedure, shortened: (§1)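 Response scored visually against untreated controls, 0 = no effect and 100 = complete control, 13–15 d after treatment in the greenhouse. Compounds added to paddy water held 3 cm above soil surface. Treatment given at 2-leaf stage.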
# [2] = system: ducksalad (Heteranthera limosa); assay: Test B flooded paddy test; details: Heteranthera limosa, 360 h, Flood, 250 g ai/ha; visually evaluated after 13 to 15 d; read-out: Plant response rating, Ducksalad (0 to 100 scale where 0 is no effect and 100 is complete control)
# Procedure, shortened: as §1
# [3] = system: rice (Oryra sativa); assay: Test B flooded paddy test; details: Oryza sativa, 360 h, Flood, 250 g ai/ha; visually evaluated after 13 to 15 d; read-out: Plant response rating, Rice (0 to 100 scale where 0 is no effect and 100 is complete control)
# Procedure, shortened: as §1
# [4] = system: sedge, umbrella (small-flower umbrella sedge, Cyperus difformis); assay: Test B flooded paddy test; details: Cyperus difformis, 360 h, Flood, 250 g ai/ha; visually evaluated after 13 to 15 d; read-out: Plant response rating, Sedge, Umbrella (0 to 100 scale where 0 is no effect and 100 is complete control)
# Procedure, shortened: as §1
# [5] = system: wheat (Triticum aestivum); assay: Test A postemergence; details: Triticum aestivum, post-emergence, 240 h, Postemergence, read-out: Wheat plant response rating (0 to 100 scale)
# Procedure, shortened: (§2)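 Visual injury, scored on a 0–100 scale relative to untreated controls, was recorded about 10 d after application. Treatments were a preemergence soil spray over planted seeds or a postemergence spray on plants at the one- to two-leaf stage, 2 to 10 cm tall, all in loam soil–sand blend in the greenhouse.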
# [6] = system: Galium (catchweed bedstraw, Galium aparine); assay: Test A postemergence; details: Galium, post-emergence, 240 h, Postemergence, read-out: Galium plant response rating (0 to 100 scale)
# Procedure, shortened: as §2
# [7] = system: Kochia (Kochia scoparia); assay: Test A postemergence; details: Bassia scoparia, post-emergence, 240 h, Postemergence, read-out: Kochia plant response rating (0 to 100 scale)
# Procedure, shortened: as §2
# [8] = system: giant foxtail (Setaria faberii); assay: Test A postemergence; details: Setaria faberi, post-emergence, 240 h, Postemergence, read-out: Foxtail, Giant plant response rating (0 to 100 scale)
# Procedure, shortened: as §2
# [9] = system: barnyardgrass (Echinochloa crus-galli); assay: Test A postemergence; details: Echinochloa crus-galli, post-emergence, 240 h, Postemergence
# Procedure, shortened: as §2
# [10] = system: ragweed (common ragweed, Ambrosia elatior); assay: Test A postemergence; details: Ambrosia artemisiifolia, post-emergence, 240 h, Postemergence, read-out: Ragweed plant response rating (0 to 100 scale)
# Procedure, shortened: as §2
# [11] = system: pigweed (Amaranthus retroflexus); assay: Test A postemergence; details: Amaranthus retroflexus, post-emergence, 240 h, Postemergence, read-out: Pigweed plant response rating (0 to 100 scale)
# Procedure, shortened: as §2
# [12] = system: corn (Zea mays); assay: Test A postemergence; details: Zea mays, post-emergence, 240 h, Postemergence, read-out: Corn plant response rating (0 to 100 scale)
# Procedure, shortened: as §2
# [13] = system: blackgrass (Alopecurus myosuroides); assay: Test A postemergence; details: Alopecurus myosuroides, post-emergence, 240 h, Postemergence, read-out: Blackgrass plant response rating (0 to 100 scale)
# Procedure, shortened: as §2
# [14] = system: ryegrass, Italian (Italian ryegrass, Lolium multiflorum); assay: Test A postemergence; details: Lolium multiflorum, post-emergence, 240 h, Postemergence, read-out: Ryegrass, Italian plant response rating (0 to 100 scale)
# Procedure, shortened: as §2
# [15] = system: Kochia (Kochia scoparia); assay: Test A preemergence; details: Bassia scoparia, pre-emergence, 240 h, Preemergence
# Procedure, shortened: as §2
# [16] = system: giant foxtail (Setaria faberii); assay: Test A preemergence; details: Setaria faberi, pre-emergence, 240 h, Preemergence
# Procedure, shortened: as §2
# [17] = system: barnyardgrass (Echinochloa crus-galli); assay: Test A preemergence; details: Echinochloa crus-galli, pre-emergence, 240 h, Preemergence
# Procedure, shortened: as §2
# [18] = system: ragweed (common ragweed, Ambrosia elatior); assay: Test A preemergence; details: Ambrosia artemisiifolia, pre-emergence, 240 h, Preemergence
# Procedure, shortened: as §2
# [19] = system: pigweed (Amaranthus retroflexus); assay: Test A preemergence; details: Amaranthus retroflexus, pre-emergence, 240 h, Preemergence
# [20] = system: ryegrass, Italian (Italian ryegrass, Lolium multiflorum); assay: Test A preemergence; details: Lolium multiflorum, pre-emergence, 240 h, Preemergence
# Procedure, shortened: as §2
# [21] = 125 g ai/ha, visual rating about 10 d after treatment
# [22] = 31 g ai/ha, 0 is no effect, 100 is complete control
smiles,measurement,setting,value
CC(C)=Cc1cc([C@H]2CN(C)C(=O)[C@@H]2C(=O)Nc2cccc(F)c2F)ccc1C(F)(F)F [Compound 1337],pest or weed control at 250 g/ha,[1],20%
same,pest or weed control at 250 g/ha,[2],20%
same,pest or weed control at 250 g/ha,[3],20%
same,pest or weed control at 250 g/ha,[4],0%
same,plant injury at 125 g/ha,[5]; [21],20%
same,plant injury at 31 g/ha,[5]; [22],0%
same,pest or weed control at 125 g/ha,[6]; [21],0%
same,pest or weed control at 31 g/ha,[6]; [22],0%
same,pest or weed control at 125 g/ha,[7]; [21],20%
same,pest or weed control at 31 g/ha,[7]; [22],20%
same,pest or weed control at 125 g/ha,[8]; [21],40%
same,pest or weed control at 31 g/ha,[8]; [22],20%
same,pest or weed control at 125 g/ha,"[9]; 125 g ai/ha, visual rating about 10 d after treatment, read-out: Barnyardgrass plant response rating (0 to 100 scale, 0 no effect, 100 complete control)",30%
same,pest or weed control at 31 g/ha,"[9]; 31 g ai/ha, 0 is no effect, 100 is complete control, read-out: Barnyardgrass plant response rating (0 to 100 scale)",20%
same,pest or weed control at 125 g/ha,[10]; [21],0%
same,pest or weed control at 31 g/ha,[10]; [22],0%
same,pest or weed control at 125 g/ha,[11]; [21],20%
same,pest or weed control at 31 g/ha,[11]; [22],0%
same,plant injury at 125 g/ha,[12]; [21],0%
same,plant injury at 31 g/ha,[12]; [22],0%
same,pest or weed control at 125 g/ha,[13]; [21],0%
same,pest or weed control at 31 g/ha,[13]; [22],0%
same,pest or weed control at 125 g/ha,[14]; [21],20%
same,pest or weed control at 31 g/ha,[14]; [22],0%
same,pest or weed control at 31 g/ha,"[15]; 31 g ai/ha, 0 to 100 scale where 0 is no effect and 100 is complete control, read-out: Kochia plant response rating",0%
same,pest or weed control at 125 g/ha,"[15]; 125 g ai/ha, 0 to 100 scale (0 no effect, 100 complete control), read-out: Plant response rating, Kochia",0%
same,pest or weed control at 31 g/ha,"[16]; 31 g ai/ha, 0 to 100 scale where 0 is no effect and 100 is complete control, read-out: Foxtail, Giant plant response rating",40%
same,pest or weed control at 125 g/ha,"[16]; 125 g ai/ha, 0 to 100 scale (0 no effect, 100 complete control), read-out: Plant response rating, Foxtail, Giant",80%
same,pest or weed control at 31 g/ha,"[17]; 31 g ai/ha, 0 to 100 scale where 0 is no effect and 100 is complete control, read-out: Barnyardgrass plant response rating",50%
same,pest or weed control at 125 g/ha,"[17]; 125 g ai/ha, 0 to 100 scale (0 no effect, 100 complete control), read-out: Plant response rating, Barnyardgrass",80%
same,pest or weed control at 31 g/ha,"[18]; 31 g ai/ha, 0 to 100 scale where 0 is no effect and 100 is complete control, read-out: Ragweed plant response rating",0%
same,pest or weed control at 125 g/ha,"[18]; 125 g ai/ha, 0 to 100 scale (0 no effect, 100 complete control), read-out: Plant response rating, Ragweed",0%
same,pest or weed control at 31 g/ha,"[19]; 31 g ai/ha, 0 to 100 scale where 0 is no effect and 100 is complete control, read-out: Pigweed plant response rating",0%
same,pest or weed control at 125 g/ha,"[19]; 125 g ai/ha, 0 to 100 scale (0 no effect, 100 complete control), read-out: Plant response rating, Pigweed",0%
same,pest or weed control at 31 g/ha,"[20]; 31 g ai/ha, 0 to 100 scale where 0 is no effect and 100 is complete control, read-out: Ryegrass, Italian plant response rating",20%
same,pest or weed control at 125 g/ha,"[20]; 125 g ai/ha, 0 to 100 scale (0 no effect, 100 complete control), read-out: Plant response rating, Ryegrass, Italian",70%
